{
  "source": "patent US12227494B2",
  "about": "“Polymorphisms of HM30181 mesylate” (ATHENEX R&D, LLC, priority 2020, dated 2025)",
  "assay_type_in_all_cases": "physicochemical",
  "key": {"[1]": {"assay": "Estimated solubility of HM30181 mesylate Type A starting material in solvents (stepwise solvent addition)", "conditions": "for solubility: thermodynamic from solid"}, "[2]": {"assay": "Dynamic Vapor Sorption (DVS) with XRPD post-DVS", "conditions": "for Hygroscopicity by DVS (in words) / Water absorbed by DVS: 0-95% RH", "protocol": "(§1) XRPD was performed using a Panalytical X'Pert3™ Powder XRPD and on a Si zero-background holder. The 2θ position was calibrated against a Panalytical™ 640 Si powder standard. Details of XRPD used in the experiments are listed below in Table 20.\nDynamic Vapor Sorption (DVS) was measured using a SMS (Surface Measurement Systems™) DVS Intrinsic. Parameters for DVS test are listed below in Table 24."}, "[3]": {"assay": "XRPD of polymorphs after air-drying or vacuum-drying (solid form stability)", "protocol": "Large scale studies were performed with HM30181 mesylate Type A starting material on a 200 mg scale as described below. Solids were isolated by vacuum filtration. The wet cakes from filtration from DMA, DMF, and NMP slurries were washed with 1 mL to 2 mL methanol to remove solvents. […]\nas §1"}, "[4]": {"assay": "Cyclic DSC heating followed by XRPD / 1H-NMR (thermal stability of solid form)", "protocol": "Based on ^1H-NMR data, decomposition of Type A initiated after heating to 200° C. (see FIG. 14).\nas §1\nIn some studies, a cyclic DSC method was used. In such cycling DSC methods temperature was ramped from ambient to 150° C. at a heating rate of 10° C./min using N2 as the purge gas, then cooled by 10° C. to 25° C. This temperature cycle repeated twice (see Table 22).\n(§2) Proton NMR were obtained using a Varian 200M™ NMR in deuterated DMSO (DMSO-d6)."}, "[5]": {"assay": "1H-NMR check for disproportionation or degradation", "conditions": "slurry in DMF at 150° C., 5 days", "text": "At large scale, a slurry of HM30181 mesylate Type A starting material in methanol at ambient conditions generated a mixture of HM30181 mesylate Type B and HM30181 mesylate Type A after 9 days (see FIG. 32). After 14 days, the slurry in methanol generated a HM30181 mesylate Type N polymorph. […] A scaled-up slurry of HM30181 mesylate Type A starting material in DMA yielded HM30181 mesylate Type E after 6 days (see FIG. 35). […] A scaled-up slurry of HM30181 mesylate Type A starting material in DMF at 50° C. yielded HM30181 mesylate Type F rather than the expected HM30181 mesylate Type G after 9 days (see FIG. 36). […] This slurry was heated in an attempt to generate HM30181 mesylate Type G. A scaled-up slurry of HM30181 mesylate Type A starting material in DMF at 100° C. yielded HM30181 mesylate Type F after 2 days (see FIG. 37). A scaled-up slurry of HM30181 mesylate Type A starting material in DMF at 150° C. yielded a previously unobserved XRPD pattern after 5 days (see FIG. 37).\nBy 1H-NMR, HM30181 mesylate Type E contained DMA, HM30181 mesylate Type F contains DMF, and HM30181 mesylate Type N contains MeOH.\nas §2"}},
  "data": [
    {"smiles": "COc1cc2c(cc1OC)CN(CCc1ccc(-n3nnc(-c4cc(OC)c(OC)cc4NC(=O)c4cc(=O)c5ccccc5o4)n3)cc1)CC2.CS(=O)(=O)O", "note": "[HM30181 mesylate Type A, HM30181 mesylate]", "values": [
      {"measurement": "solubility", "setting": "[1]; organic solvent or mixture, solvent 1,4-Dioxane", "value": "< 1000", "unit": "µg/mL"},
      {"measurement": "solubility", "setting": "[1]; organic solvent or mixture, solvent 2-MeTHF", "value": "< 1000", "unit": "µg/mL"},
      {"measurement": "solubility", "setting": "[1]; organic solvent or mixture, solvent ACN", "value": "< 1000", "unit": "µg/mL"},
      {"measurement": "solubility", "setting": "[1]; organic solvent or mixture, solvent Acetone", "value": "< 1000", "unit": "µg/mL"},
      {"measurement": "solubility", "setting": "[1]; organic solvent or mixture, solvent CHCl3", "value": "5000 to 6700", "unit": "µg/mL"},
      {"measurement": "solubility", "setting": "[1]; organic solvent or mixture, solvent Cumene", "value": "< 1000", "unit": "µg/mL"},
      {"measurement": "solubility", "setting": "[1]; organic solvent or mixture, solvent Cyclohexane", "value": "< 1000", "unit": "µg/mL"},
      {"measurement": "solubility", "setting": "[1]; organic solvent or mixture, solvent DCM", "value": "< 1000", "unit": "µg/mL"},
      {"measurement": "solubility", "setting": "[1]; organic solvent or mixture, solvent DMA", "value": "3200 to 4800", "unit": "µg/mL"},
      {"measurement": "solubility", "setting": "[1]; organic solvent or mixture, solvent DMSO", "value": "22000 to 44000", "unit": "µg/mL"},
      {"measurement": "solubility", "setting": "[1]; organic solvent or mixture, solvent EtOAc", "value": "< 900", "unit": "µg/mL"},
      {"measurement": "solubility", "setting": "[1]; organic solvent or mixture, solvent EtOH", "value": "< 900", "unit": "µg/mL"},
      {"measurement": "solubility", "setting": "[1]; organic solvent or mixture, solvent IPA", "value": "< 1000", "unit": "µg/mL"},
      {"measurement": "solubility", "setting": "[1]; organic solvent or mixture, solvent IPOAc", "value": "< 1000", "unit": "µg/mL"},
      {"measurement": "solubility", "setting": "[1]; organic solvent or mixture, solvent MEK", "value": "< 1000", "unit": "µg/mL"},
      {"measurement": "solubility", "setting": "[1]; organic solvent or mixture, solvent MIBK", "value": "< 1000", "unit": "µg/mL"},
      {"measurement": "solubility", "setting": "[1]; organic solvent or mixture, solvent MTBE", "value": "< 1000", "unit": "µg/mL"},
      {"measurement": "solubility", "setting": "[1]; organic solvent or mixture, solvent MeOH", "value": "1700 to 2000", "unit": "µg/mL"},
      {"measurement": "solubility", "setting": "[1]; organic solvent or mixture, solvent NMP", "value": "4800 to 6300", "unit": "µg/mL"},
      {"measurement": "solubility", "setting": "[1]; organic solvent or mixture, solvent T-BuOH", "value": "< 1000", "unit": "µg/mL"},
      {"measurement": "solubility", "setting": "[1]; organic solvent or mixture, solvent THF", "value": "< 1000", "unit": "µg/mL"},
      {"measurement": "solubility", "setting": "[1]; organic solvent or mixture, solvent Toluene", "value": "< 1000", "unit": "µg/mL"},
      {"measurement": "solubility", "setting": "[1]; organic solvent or mixture, solvent n-Heptane", "value": "< 1000", "unit": "µg/mL"},
      {"measurement": "solubility", "setting": "[1]; organic solvent or mixture, solvent n-Propanol", "value": "< 1000", "unit": "µg/mL"},
      {"measurement": "solubility", "setting": "[1]; organic solvent or mixture, solvent n-Propyl acetate", "value": "< 1000", "unit": "µg/mL"},
      {"measurement": "Dissolved after heating to 50° C. for 2 hours?", "setting": "[1]; solvent 1,4-Dioxane", "value": "No"},
      {"measurement": "Dissolved after heating to 50° C. for 2 hours?", "setting": "[1]; solvent 2-MeTHF", "value": "No"},
      {"measurement": "Dissolved after heating to 50° C. for 2 hours?", "setting": "[1]; solvent ACN", "value": "Yes"},
      {"measurement": "Dissolved after heating to 50° C. for 2 hours?", "setting": "[1]; solvent Acetone", "value": "No"},
      {"measurement": "Dissolved after heating to 50° C. for 2 hours?", "setting": "[1]; solvent Cumene", "value": "No"},
      {"measurement": "Dissolved after heating to 50° C. for 2 hours?", "setting": "[1]; solvent Cyclohexane", "value": "No"},
      {"measurement": "Dissolved after heating to 50° C. for 2 hours?", "setting": "[1]; solvent DCM", "value": "Yes"},
      {"measurement": "Dissolved after heating to 50° C. for 2 hours?", "setting": "[1]; solvent EtOAc", "value": "No"},
      {"measurement": "Dissolved after heating to 50° C. for 2 hours?", "setting": "[1]; solvent EtOH", "value": "Almost"},
      {"measurement": "Dissolved after heating to 50° C. for 2 hours?", "setting": "[1]; solvent H2O", "value": "No"},
      {"measurement": "Dissolved after heating to 50° C. for 2 hours?", "setting": "[1]; solvent IPA", "value": "No"},
      {"measurement": "Dissolved after heating to 50° C. for 2 hours?", "setting": "[1]; solvent IPOAc", "value": "No"},
      {"measurement": "Dissolved after heating to 50° C. for 2 hours?", "setting": "[1]; solvent MEK", "value": "No"},
      {"measurement": "Dissolved after heating to 50° C. for 2 hours?", "setting": "[1]; solvent MIBK", "value": "No"},
      {"measurement": "Dissolved after heating to 50° C. for 2 hours?", "setting": "[1]; solvent MTBE", "value": "No"},
      {"measurement": "Dissolved after heating to 50° C. for 2 hours?", "setting": "[1]; solvent T-BuOH", "value": "No"},
      {"measurement": "Dissolved after heating to 50° C. for 2 hours?", "setting": "[1]; solvent THF", "value": "No"},
      {"measurement": "Dissolved after heating to 50° C. for 2 hours?", "setting": "[1]; solvent Toluene", "value": "No"},
      {"measurement": "Dissolved after heating to 50° C. for 2 hours?", "setting": "[1]; solvent n-Heptane", "value": "No"},
      {"measurement": "Dissolved after heating to 50° C. for 2 hours?", "setting": "[1]; solvent n-Propanol", "value": "No"},
      {"measurement": "Dissolved after heating to 50° C. for 2 hours?", "setting": "[1]; solvent n-Propyl acetate", "value": "No"},
      {"measurement": "solubility", "setting": "[1]; water, solvent H2O", "value": "< 1000", "unit": "µg/mL"},
      {"measurement": "Hygroscopicity by DVS (in words)", "setting": "[2]", "value": "hygroscopic"},
      {"measurement": "Water absorbed by DVS", "setting": "[2]", "value": 2.26, "unit": "%"},
      {"measurement": "Hygroscopicity by DVS (in words)", "setting": "[2]; listed as Type A", "value": "Monohydrate (hygroscopic"},
      {"measurement": "Water absorbed by DVS", "setting": "[2]; listed as Type A", "value": "to 2.26% at 95% RH)"},
      {"measurement": "XRPD pattern post-DVS", "setting": "[2]; after DVS 0-95% RH", "value": "no change in XRPD pattern observed"},
      {"measurement": "XRPD (air-dry)", "setting": "[3]; air-dried solids from Crash cooling 50° C.-->−20° C., ACN 10 mL, Exp. 6007235-17-C12", "value": "Type C"},
      {"measurement": "XRPD (air-dry)", "setting": "[3]; air-dried solids from Slow Cooling 50° C.-->4° C., ACN 10 mL, Exp. 6007235-17-C4", "value": "Type C"},
      {"measurement": "XRPD (air-dry)", "setting": "[3]; air-dried solids from Slow Cooling 50° C.-->4° C., DCM 10 mL, Exp. 6007235-17-C5", "value": "Type C"},
      {"measurement": "Heating temperature after which decomposition initiated (1H-NMR)", "setting": "[4]; 1H-NMR of heated sample", "value": 200, "unit": "°C"},
      {"measurement": "XRPD after cyclic DSC", "setting": "[4]; heated to 110° C.", "value": "no XRPD change"},
      {"measurement": "XRPD after cyclic DSC", "setting": "[4]; heated to 185° C.", "value": "reduced crystallinity"},
      {"measurement": "XRPD after cyclic DSC", "setting": "[4]; heated to 200° C.", "value": "amorphous material"},
      {"measurement": "Chemical stability in DMF slurry by 1H-NMR", "setting": "[5]", "value": "resulted in degradation"}
    ]}
  ]
}
